Measurements as given in US20110033883A1, “IMAGING DYES AND USE THEREOF” (priority 2007, published 2011).
Ru(bpy)2(pic) = [Ru(bpy)2(piCH2)]2+ complex, attached to the peptide through a hexyl spacer; Ahx = NCCCCCC(=O)O

How the values were obtained:
[1] = pH dependence of resonance Raman peak ratios; assay type: physicochemical; conditions: ratio of peaks at 1575 and 1317 cm^-1, 458 nm excitation
Experimental: (§1) Resonance Raman spectroscopy was performed on a Horiba Jobin Yvon HR800UV confocal microscope using an Argon ion Laser (458 nm or 514 nm) or a Helium-Neon (HeNe) laser (633 nm) as the exciting wavelength. Ten spectral acquisitions were accumulated and each acquisition was two seconds in length. Steady-state emission spectra were recorded on a Cary Eclipse Fluorescence spectrophotometer, and luminescence lifetimes were obtained using a Picoquant Fluotime 100 TCSPC system exciting at 470 nm and detecting at 600 nm using a narrow band pass dielectric filter. Quantum yields were measured using the comparative method described by Williams et al. In quenching studies, the luminophore/quencher concentrations were corrected for dilution.
To evaluate the pH dependence of the resonance Raman data peak ratios were calculated with Labspec5 software. A baseline was drawn along the base of the peak and the area was calculated. Regions for the peaks were 1700 to 1400 cm^−1. The ratio of the peaks for the different protonation states […] 5 replica measurements were recorded for each pH and averaged.
As the pH changes, the pic moiety can be protonated or deprotonated, while the bpy moieties should stay mainly unaffected by changes in pH. […]

[2] = pH titration, ground-state pKa (UV/vis absorption, Henderson-Hasselbalch fit); assay type: physicochemical
Experimental: ^1H NMR spectra were recorded on a Bruker Advance series 400 MHz NMR spectrometer. The NMR titration experiments were performed following a previously published protocol (Charbonnier and Penades). Mass spectra were acquired using a positive ion mode on a Bruker LC/MS Esquire. Electronic absorption spectra were measured on a Shimadzu 3500 UV-VIS/NIR spectrophotometer. Cyclic voltammetry was carried out using a CH Instruments CH602 electrochemical workstation. A conventional three-electrode cell was used, employing glassy carbon as working, Ag/AgCl as reference or Ag/AgNO3 in acetonitrile, and Pt wire as counter electrodes. Electrochemistry was conducted in water and acetonitrile respectively with 0.1 M phosphate buffer or tetrabutylammonium tetrafluoroborate (TBABF4) as supporting electrolyte under an N2 atmosphere. pH titrations were performed in the pH range 0.5-12. The pH was adjusted by adding aqueous solutions of NaOH or HClO4.
(§2) The pH was adjusted with H2SO4 (Sigma-Aldrich) and KOH (Sigma-Aldrich) and measured with a pH meter. UV/vis absorption spectra during the pH titration experiment were corrected for change in volume.
UV/vis absorption titration curves were fitted with a modified Henderson-Hasselbalch equation which was obtained using Beer-Lambert's law to express the concentration, FIG. 2(b) For fitting the fluorescence titration curve it was assumed that the average lifetime goes linear with the ratio of the two species in equilibrium at the certain pH.
At a shorter wavelength the ππ* transitions centred at the ligands are found: around 350 nm the ππ* transition at the pic ligand, and around 280 nm at the bipyridine ligands. […] The increasing absorption with increasing pH at 350 nm is plotted in FIG. 13B. Fitting this curve with a modified Henderson-Hasselbalch equation results in a pKa1 of 1.72±0.07 and pKa2 of 8.16±0.03. As expected the pH dependence of the other bands is rather minor.

[3] = system: Sp2/0-Ag 14 myeloma cells; experiment: Confocal luminescence imaging, incorporation and localization in myeloma cells (DiOC6(3) counterstain); assay type: cell-based, mouse
Experimental: (§3) Sp2/0-Ag 14 myeloma cells (ATCC number CRL-1581™) were obtained from the ATCC Cell Biology Collection (United Kingdom). Cells were grown in Dulbecco's modified Eagle's medium (Sigma-Aldrich) supplemented with 10% foetal calf serum (Gibco Invitrogen) and 1% L-glutamine (Gibco Invitrogen) at 37° C. and 5% CO2. Cells were harvested after growing for 2 days. The viability was ensured by testing them in a trypan blue assay. In a usual sample less than 1% of the cells were dead. The growth medium was removed by centrifuging the cells at 2000 rpm for 2 min in an Eppendorff centrifuge, washed twice and resuspended in PBS buffer.
To identify where the Ru dye [Ru(bpy)2(PIC-arg8)]^2+ is localizing inside the cell, cells were counterstained with two commercial dyes. Sytox green (Invitrogen) which localizes inside the nucleus; and DiOC6(3) (3,3′-dihexyloxacarbocyanine iodide, Invitrogen) which selectively stains mitochondria and at higher concentration other internal membranes, such as the endoplasmatic reticulum, of living cells. Both dyes can be excited with the 458 nm line of an argon ion laser used for excitation of the [Ru(bpy)2(pic-R8)]^n+ dye, however, their fluorescence is in the green (around 500 nm), and therefore could be easily spectrally separated from the fluorescence of the Ru complex. […]
For the fluorescence and fluorescence lifetime experiments 100 μl aliquots of washed myeloma cells were resuspended in PBS buffer (pH 7.4) and incubated with the 3 μl of the Ru-octopeptide (1.2 mM), resulting in a final dye concentration of 3.5×10^−5 M.
The luminescence images of myeloma cells were recorded with a Zeiss LSM510 Meta confocal microscope, using a 63× oil immersion objective (NA 1.4). […] The luminescence from the Ru complexes was collected using a longpass filter at 560 nm. When Sytox green and/or DiOC6(3) were localised in the same cell, the luminescence from the Ru-dye was collected behind a 615 nm longpass filter, while the Sytox green and DiOC6(3) fluorescence was collected with a 465-510 nm bandpass filter in another channel, or by using the meta option of the instrument.

human blood platelets [4] = experiment: Fluorescence microscopy of human blood platelets incubated with dye conjugates; assay type: cell-based
Experimental: Human Blood Platelets were supplied by Niamh Moran and Dermot Kenny and prepared as described Moran et al.
Fluorescence microscopy was performed on human blood platelets incubated in the presence of Ru-Ahx-R5 and Ru-Ahx-R8. […] The process is largely irreversible, removing and washing cells, and resuspending in buffer results in less than 20% loss of emission intensity from the cell. The fluorescence microscopy pictures show intense, long-lived luminescence originating from the platelet; the wavelength of which (around 620 nm) can be assigned to the Ruthenium centres.

[5] = system: Sp2/0-Ag 14 myeloma cells; experiment: Sytox green counterstain for cell viability; assay type: cell-based, mouse; conditions: over 2 hours
Experimental: as §3
To identify where the Ru dye [Ru(bpy)2(PIC-arg8)]^2+ is localizing inside the cell, cells were counterstained with two commercial dyes. […] Both dyes can be excited with the 458 nm line of an argon ion laser used for excitation of the [Ru(bpy)2(pic-R8)]^n+ dye, however, their fluorescence is in the green (around 500 nm), and therefore could be easily spectrally separated from the fluorescence of the Ru complex. […]
The luminescence images of myeloma cells were recorded with a Zeiss LSM510 Meta confocal microscope, using a 63× oil immersion objective (NA 1.4). […] The luminescence from the Ru complexes was collected using a longpass filter at 560 nm. […]

human blood platelets [6] = experiment: Photobleaching under continuous irradiation at 458 nm of dye-labelled human blood platelets; assay type: cell-based; conditions: identical conditions
From the text: Some of the advantages associated with the invention may include: • The dye conjugates described are long-lived and environmentally sensitive. The sensitivity of the dye conjugates can be tailored, e.g. to oxygen partial pressure, pH, water content etc., by altering the ligands and/or the metal ion of the dye conjugate. • Photobleaching: bleaching experiments, for example the data presented in FIG. 10, are a measure of the photostability of the dye conjugate under the types of continuous irradiation required for imaging. […] For example a ruthenium-polypyridyl complex covalently bound to an octa arginine peptide required approximately 20 minutes continuous irradiation for the dye to bleach to 50% of its initial intensity. […] The dye conjugates described herein provide a much greater acquisition time which is a significant advantage to the microscopist/microbiologist. • The synthetic yields for coupling of the Rupic unit to amine functionalities are high. The dye conjugates are functionalised with a single, accessible group, allowing unequivocal reaction with nucleophilic functions on peptides or proteins. […] The dye conjugates are easily synthetically modified to change colour, lifetime, and environmental sensitivity and are highly resistant to photobleaching.
FIG. 10 is a graph showing a photobleaching experiment. […]

[7] = Luminescence intensity as a function of pH, excited state pKa; assay type: physicochemical; conditions: excitation at isosbestic point, luminescence intensity vs pH
Experimental: as §1, §2
The luminescence wavelength and its intensity are pH dependent. While the emission maximum at pH 7 is at 608 nm, it shifts to higher wavelength with increasing and decreasing pH (λmax (pH 1.3)=623 nm; λmax (pH 11)=616 nm). When the pic ligand is in its neutral state, the luminescence is very bright (Φ=0.06), about 30% more intense than the one of [Ru(bpy)3]^2+. […]

[8] = Oxygen quenching of luminescence (Stern-Volmer); assay type: physicochemical
Experimental: Different oxygen concentrations were adjusted by streaming various O2—N2-mixtures through the solution until equilibrium was reached. The oxygen concentration was measured with an optical O2 electrode (Visiferm DO120, Hamilton). The fluorescence lifetime of the equilibrated dye solutions was measured in a closed-system flow cell.
In air saturated PBS solutions the lifetime drops down to 540 ns when the pic ligand is neutral, and even down to 350 ns, when the pic moiety is deprotonated. Stern-Volmer plots are linear up to air saturated solutions and then start levelling of. The Stern-Volmer quenching constants range actually vary very little with pH 2100 M^−1 for pH 10 to around 2900 M^−1 when the pic moiety is in its neutral state. The corresponding bimolecular rate constants vary between around […] when the pic moiety is deprotonated to […] when the pic moiety is in its neutral state, which is essentially the same within experimental error. This means that within the limited range of the cellular environment the O2 concentration within a cell can be assessed independently of pH using this dye.

[9] = system: mouse SP2/0 myeloma cells; experiment: Resonance Raman mapping of myeloma cells; assay type: cell-based
Experimental: as §1
For the fluorescence and fluorescence lifetime experiments 100 μl aliquots were used and incubated with the 3 μl of the Ru-octopeptide (1.2 mM), resulting in a final dye concentration of 3.5×10^−5 M. If only resonance Raman experiments were performed, the cells were incubated in the medium with dye for 15 minutes prior to the washing step.
The resonance Raman maps of the stained myeloma cells were analyzed using the modelling option implemented in the LabSpec software. A model with 4 components was creating, grouping together similar spectra in one component (background, where there is no dye/no cell, outer cell (membrane), cytoplasm and nucleus). […]

[10] = system: bovine aortic epithelial (BAE) cells; experiment: Confocal luminescence imaging of bovine aortic epithelial (BAE) cells; assay type: cell-based; conditions: BAE cells in PBS buffer, 22° C., excitation 458 nm
Experimental: Bovine aortic endothelium cells were supplied by Dr PM Cummins and cultured as described in Colgon et al.
Here it has been used to image emission spectrum (left) and a confocal image at a excitation wavelength of 458 nm (right) of bovine aortic epithelial (BAE) cells. The dyes were incubated at 22° C. with BAE cells in PBS buffer.

[11] = absorption at 350 nm vs pH, modified Henderson-Hasselbalch fit

For [Ru(bpy)2(PicH2)](PF6)2 [[Ru-LH]^2+], the “pKa from ratio of resonance Raman peaks” value [1] was 8.5±0.2, the “pKa of ionisable site at the imidazole (higher)” value [2] was 8.5 and the “pKa of ionisable site at the imidazole (lower)” value [2] was 1.6.

For “[Ru(bpy)2(PicH-R8)]^n+: ruthenium centre with two bipyridine ligands and one picH ligand; octaarginine coupled to pic carboxy end via Ahx spacer, amide linkage ({(Ru(bpy)2(picH))-Ahx}-RRRRRRRR-NH2; also: Ru(bpy)2 picH ruthenium complex attached via Ahx spacer)”, the “incubation time after which dye localises in the nucleus” value [3] was > 40 min, the “time until penetration into the cells is complete” value ([3]; 3.5×10^−5 M dye) was 15 to 20 min and the “preference for mitochondria (DiOC6(3) counterstain)” value ([3]; 20 mins incubation) was “no special preferences for mitochondria”. The “loss of emission intensity from the cell after removing, washing and resuspending in buffer” value (human blood platelets [4]) was “less than 20%”, the “transport across the platelet membrane” value (human blood platelets [4]; fluorescence microscopy) was “transported through the cells membrane to accumulate intracellularly” and the “cell viability (Sytox green exclusion)” value [5] was “did not kill the cells”. The “continuous irradiation time for the dye to bleach to 50% of its initial intensity” value (human blood platelets [6]) was “approximately 20 minutes”, the “excited state pKa2*” value [7] was 8.1±0.2 and the “bimolecular rate constant of oxygen quenching” value ([8]; pic moiety deprotonated) was “around 3.6×10^−9 M^−1 s^−1”. For the same substance, the “bimolecular rate constant of oxygen quenching” value ([8]; pic moiety in its neutral state) was 3e-09 M⁻¹ s⁻¹, the “distribution of the dye inside the cell (Raman map, band at 1487 cm^−1)” value ([9]; myeloma cell incubated for 15 min) was “distributed throughout the cytoplasm, with less dye in the nucleus” and the pKa1 [2, 11] was 1.72±0.07. It also gave a pKa2 [2, 11] of 8.16±0.03.

With “[Ru(bpy)2(pic-KVG)]^n+: [Ru(bpy)2(piCH2)]^2+ attached through a hexyl spacer to KVGFFKR-NH2 (SEQ ID No. 20) ({Ru(bpy)2(pic)-Ahx}-KVGFFKR-NH2; also: ruthenium complex, charge n+)” the “localisation of the dye in the cells (luminescence image)” value [10] was “concentrates in the membrane”.

For “[Ru(dppz)2(PicH2)]ClO4 [[Ru(dppz)2PICH2]^2+]”, the “entry into the cell (resonance Raman imaging)” value ([9]; mouse SP2/0 myeloma cells, pH 7.4 PBS, cells washed) was “only interacted with the membrane but did not cross it”.
